Earlier results in patent publication US20240043928A1, “BIOMARKERS FOR MYELODYSPLASTIC SYNDROME (MDS) AND METHODS OF USING THE SAME” (Eisai R&D Management Co., Ltd., priority 2020, published 2024).

Details: subjects of a prior phase 1 trial; cited from earlier work

With `CC[C@H](O)[C@@H](C)[C@H]1O[C@@H]1C[C@@](C)(O)/C=C/C=C(\C)[C@H]1OC(=O)C[C@H](O)CC[C@@](C)(O)[C@@H](OC(=O)N2CCN(C3CCCCCC3)CC2)/C=C/[C@@H]1C` [Compound E7107] as the compound, how does the visual loss read?
Its visual loss is “visual loss was observed”.
